≈ marks a conversion by molar mass, not a printed value.
What was measured:
[1] = system: UEA-1 binding sites on Caco-2 cell membrane preparations; experiment: Single tier competition assay: inhibition of biotinylated UEA-1 binding, compound and biotinylated UEA-1 incubated together; design: species or system human
Method: (§1) The epithelial cell binding ability of compounds and mixtures obtained from synthetic combinatorial libraries was determined by competition assays. These assays were set up to measure the inhibition of binding of biotinylated UEA-1 to membrane preparations of the epithelial cell line Caco-2 (colon carcinoma cells-2), by compounds and mixtures of the combinatorial libraries. This cell line is a conventional model for epithelial cells.
(§2) Two competition inhibition assays were used in this case, namely single tier and two tier assays. These assays differed from each other in that in the single tier assay, the mixtures/compounds and the biotinylated UEA-1 were incubated together with the Caco-2 cell membrane preparations, while in case of the two-tier assay, the mixture/compounds were allowed to incubate alone with the cell membranes in the absence of biotinylated UEA-1, which was added in the next step. Addition of the extra step in the two-tier assay was to ensure that the compounds inhibiting the binding of biotinylated UEA-1 to the Caco-2 cell membranes were doing so by themselves binding to surface receptors on the Caco-2 cells and not to the biotinylated UEA-1. Each assay will be described in detail.
(§3) • 1. Confluent Caco-2 cell monolayers (grown in 75 cm^2 flasks for up to 1 week at 37° C. and 5% CO2) were washed twice in Dulbecco's PBS (DPBS). • 2. Cell monolayers were treated with 10 mM EDTA-DPBS for 5–10 min at 37° C. and cells were harvested by centrifugation at 1000 rpm for 5 min. • 3. Cells were washed 3 times in DPBS. • 4. […] The cells were homogenised for 30 sec. • 6. The homogenates were centrifuged in hard walled tubes at 40,000 rpm for 45 min at 4° C. • 7. […] The supernatant was removed and stored on ice. The procedure was repeated adding the second supernatant to the first. • 8. The protein concentration was determined using e.g. a Bio-Rad protein assay. • 9. All fractions were stored at −80° C. prior to use. Single Tier Assays: • 1. 96-well microtiter plates were coated with membrane preparations of Caco-2 cells either by allowing them to incubate on the plates for 2½ hours at room temperature or by incubating them overnight at 4° C. 100 μl of 10 μg/ml (in 0.05 M carbonate buffer, pH 9.6) of membrane preparation was added to each well. • 2. The plates were flicked out, patted dry and blocked with bovine serum albumin (BSA)/DPBS (200 μl/well) for 1 to 4 hours at room temperature after which they were washed three times in water. • 3. […] Control wells were also set up in which the Caco-2 cell membrane preparations were incubated with unconjugated UEA-1. […] Following overnight incubation the plates were washed thoroughly (3–6 times). The plates were flicked out, patted dry and biotinylated UEA-1 was detected with commercial Streptavidin conjugated to horseradish peroxidase (HRP) (CalBiochem). […] The plates were left to incubate for an hour at room temperature. • 6. The plates were then washed 3–6 times and the biotin-streptavidin binding was detected by adding an HRP substrate OPD (orthophenyl diamine) to each well. 100 μl/well of this substrate at a final concentration of 1.6 mg/ml was added to each well. Before adding to the wells, this substrate was activated by addition of 50 μl of 3% H2O2 per plate and the reaction was allowed to develop in the dark. • 7. The reaction was stopped by adding 50 μl of 4 N H2SO4 to each well after approximately 5–10 minutes or when sufficient colour had developed. The OD490 (absorbance at 490 nm) of each well was measured using a conventional 96 well plate reading spectrophotometer. Two Tier Assays: • 1. 96 well plates were coated with Caco-2 cell membrane preparations in the same manner as described in the single tier assay. • 2. […] 100 μl at these final concentrations were added to each well. • 4. The plates were then left to incubate overnight, a step that would allow the mixtures and compounds to interact with the Caco-2 cell membranes without the presence of the competitor (biotinylated UEA-1) itself. • 5. […]

[2] = system: UEA-1 binding sites on Caco-2 cell membrane preparations; experiment: Two tier competition assay: compound incubated alone with membranes, biotinylated UEA-1 added in next step; design: species or system human
Method: as §1, §2, §3

[3] = Table 8, galloyl constructs, read-out: IC 50 (uM) 1st tier (converted)
[4] = library MSI 27, read-out: Single Tier Assay IC50
[5] = Table 8, galloyl constructs, read-out: IC 50 (uM) 2nd tier
[6] = library MSI 27, read-out: Two Tier Assay IC50

Row | IC50 [1, 4] [µM] | IC50 [2, 6] [µM] | SMILES | IC 50 (ug/ml) 1st tier ([1]; Table 8, galloyl constructs) [µg/mL] | IC50 [1, 3] [µM] | Single Tier Assay IC50 ([1]; library MSI 27) [µg/mL] | IC 50 (ug/ml) 2nd tier ([2]; Table 8, galloyl constructs) [µg/mL] | IC50 [2, 5] [µM] | Two Tier Assay IC50 ([2]; library MSI 27) [µg/mL]
1 | 395 | 395 | NC(=O)C(CCCCNC(=O)c1ccc(O)cc1)NC(=O)C(CCCCNC(=O)c1ccc(O)cc1)NC(=O)c1ccc(O)cc1 (stereo not shown) [Cpd 31] | – | – | – | – | – | –
2 | 367 | 367 | NC(=O)C(CCCCNC(=O)c1cc(O)cc(O)c1)NC(=O)C(CCCCNC(=O)c1cc(O)cc(O)c1)NC(=O)c1cc(O)cc(O)c1 (stereo not shown) [Cpd 32] | – | – | – | – | – | –
3 | 145 | 107 | COc1cc(C(=O)NCCCCC(NC(=O)C(CCCCNC(=O)c2cc(OC)c(O)c(OC)c2)NC(C)=O)C(N)=O)cc(OC)c1O (stereo not shown) [Cpd 33] | – | – | 97.85 | – | – | 72.17
4 | 317 | 317 | CCOc1cc(C(=O)NCCCCC(NC(=O)C(CCCCNC(=O)c2cc(OCC)c(OCC)c(OCC)c2)NC(C)=O)C(N)=O)cc(OCC)c1OCC (stereo not shown) [Cpd 35] | – | – | – | – | – | –
5 | 450 | 285 | CC(=O)NC(CCCCNC(=O)c1ccc(O)cc1)C(=O)NC(CCCCNC(=O)c1ccc(O)cc1)C(N)=O (stereo not shown) [Cpd 39] | – | – | – | – | – | 158.60
6 | 425 | 425 | CC(=O)NC(CCCCNC(=O)c1cc(O)cc(O)c1)C(=O)NC(CCCCNC(=O)c1cc(O)cc(O)c1)C(N)=O (stereo not shown) [Cpd 40] | – | – | – | – | – | –
7 | 80 | 74.2 | COc1cc(C(=O)NCCCCC(NC(=O)C(CCCCNC(=O)c2cc(OC)c(O)c(OC)c2)NC(=O)C(CCCCNC(=O)c2cc(OC)c(O)c(OC)c2)NC(=O)c2cc(OC)c(O)c(OC)c2)C(N)=O)cc(OC)c1O (stereo not shown) [Cpd 41] | – | – | 89.77 | – | – | 83.26
8 | 186 | 186 | CCOc1cc(C(=O)NCCCC[C@@H](NC(=O)[C@@H](CCCCNC(=O)c2cc(OCC)c(OCC)c(OCC)c2)NC(=O)[C@@H](CCCCNC(=O)c2cc(OCC)c(OCC)c(OCC)c2)NC(=O)c2cc(OCC)c(OCC)c(OCC)c2)C(N)=O)cc(OCC)c1OCC [Cpd 43] | – | – | – | – | – | –
9 | 283 | 283 | NC(=O)[C@@H](CCCCNC(=O)c1ccc(O)cc1)NC(=O)[C@@H](CCCCNC(=O)c1ccc(O)cc1)NC(=O)[C@@H](CCCCNC(=O)c1ccc(O)cc1)NC(=O)c1ccc(O)cc1 [Cpd 47] | – | – | – | – | – | –
10 | 264 | 264 | NC(=O)[C@@H](CCCCNC(=O)c1cc(O)cc(O)c1)NC(=O)[C@@H](CCCCNC(=O)c1cc(O)cc(O)c1)NC(=O)[C@@H](CCCCNC(=O)c1cc(O)cc(O)c1)NC(=O)c1cc(O)cc(O)c1 [Cpd 48] | – | – | – | – | – | –
11 | 120 | 111 | COc1cc(C(=O)NCCCCC(NC(=O)C(CCCCNC(=O)c2cc(OC)c(O)c(OC)c2)NC(=O)C(CCCCNC(=O)c2cc(OC)c(O)c(OC)c2)NC(C)=O)C(N)=O)cc(OC)c1O (stereo not shown) [Cpd 49] | – | – | 118.00 | – | – | 108.80
12 | 217 | 217 | CCOc1cc(C(=O)NCCCCC(NC(=O)C(CCCCNC(=O)c2cc(OCC)c(OCC)c(OCC)c2)NC(=O)C(CCCCNC(=O)c2cc(OCC)c(OCC)c(OCC)c2)NC(C)=O)C(N)=O)cc(OCC)c1OCC (stereo not shown) [Cpd 51] | – | – | – | – | – | –
13 | 75.1 | 95.7 | CCOC(=O)Oc1c(OC)cc(C(=O)NCCCCC(NC(=O)C(CCCCNC(=O)c2cc(OC)c(OC(=O)OCC)c(OC)c2)NC(=O)C(CCCCNC(=O)c2cc(OC)c(OC(=O)OCC)c(OC)c2)NC(C)=O)C(N)=O)cc1OC (stereo not shown) [Cpd 53] | – | – | 90.15 | – | – | 114.80
14 | 311 | 311 | CC(=O)NC(CCCCNC(=O)c1ccc(O)cc1)C(=O)NC(CCCCNC(=O)c1ccc(O)cc1)C(=O)NC(CCCCNC(=O)c1ccc(O)cc1)C(N)=O (stereo not shown) [Cpd 55] | – | – | – | – | – | –
15 | 147 | 147 | CC(=O)NC(CCCCNC(=O)c1cc(O)cc(O)c1)C(=O)NC(CCCCNC(=O)c1cc(O)cc(O)c1)C(=O)NC(CCCCNC(=O)c1cc(O)cc(O)c1)C(N)=O (stereo not shown) [Cpd 56] | – | – | 125.00 | – | – | 125.00

Row | SMILES | IC50 [1, 4] [µM] | IC50 [2, 6] [µM] | IC 50 (ug/ml) 1st tier ([1]; Table 8, galloyl constructs) [µg/mL] | IC50 [1, 3] [µM] | Single Tier Assay IC50 ([1]; library MSI 27) [µg/mL] | IC 50 (ug/ml) 2nd tier ([2]; Table 8, galloyl constructs) [µg/mL] | IC50 [2, 5] [µM] | Two Tier Assay IC50 ([2]; library MSI 27) [µg/mL]
16 | NC(=O)C(CCCCNC(=O)c1cc(O)c(O)c(O)c1)NC(=O)C(CCCCNC(=O)c1cc(O)c(O)c(O)c1)NC(=O)c1cc(O)c(O)c(O)c1 (stereo not shown) [Cpd 30] | 35.5 | 11.5 | 14 (≈ 19.2 µM) | 19 | 25.89 | 5 (≈ 6.85 µM) | 7 | 8.36
17 | COc1ccc(C(=O)NCCCCC(NC(=O)C(CCCCNC(=O)c2ccc(OC)c(OC)c2)NC(C)=O)C(N)=O)cc1OC (stereo not shown) [Cpd 34] | 189 | 135 | – | – | 121.40 | – | – | 87.01
18 | COc1cc(C(=O)NCCCCC(NC(=O)C(CCCCNC(=O)c2cc(OC)c(OC)c(OC)c2)NC(C)=O)C(N)=O)cc(OC)c1OC (stereo not shown) [Cpd 36] | 355 | 178 | – | – | – | – | – | 125.00
19 | CC(=O)NC(CCCCNC(=O)c1cc(O)c(O)c(O)c1)C(=O)NC(CCCCNC(=O)c1cc(O)c(O)c(O)c1)C(N)=O (stereo not shown) [Cpd 38] | 142 | 87.6 | 54 (≈ 87.1 µM) | 86 | 87.78 | 48 (≈ 77.5 µM) | 77 | 54.27
20 | COc1ccc(C(=O)NCCCC[C@@H](NC(=O)[C@@H](CCCCNC(=O)c2ccc(OC)c(OC)c2)NC(=O)[C@@H](CCCCNC(=O)c2ccc(OC)c(OC)c2)NC(=O)c2ccc(OC)c(OC)c2)C(N)=O)cc1OC [Cpd 42] | 101 | 108 | – | – | 107.00 | – | – | 113.80
21 | COc1cc(C(=O)NCCCC[C@@H](NC(=O)[C@@H](CCCCNC(=O)c2cc(OC)c(OC)c(OC)c2)NC(=O)[C@@H](CCCCNC(=O)c2cc(OC)c(OC)c(OC)c2)NC(=O)c2cc(OC)c(OC)c(OC)c2)C(N)=O)cc(OC)c1OC [Cpd 44] | 212 | 212 | – | – | – | – | – | –
22 | NC(=O)C(CCCCNC(=O)c1cc(O)c(O)c(O)c1)NC(=O)C(CCCCNC(=O)c1cc(O)c(O)c(O)c1)NC(=O)C(CCCCNC(=O)c1cc(O)c(O)c(O)c1)NC(=O)c1cc(O)c(O)c(O)c1 (stereo not shown) [Cpd 46] | 14.8 | 1.98 | 8 (≈ 7.92 µM) | 8 | 14.92 | 0.6 (≈ 0.594 µM) | 0.6 | 2.00
23 | COc1ccc(C(=O)NCCCCC(NC(=O)C(CCCCNC(=O)c2ccc(OC)c(OC)c2)NC(=O)C(CCCCNC(=O)c2ccc(OC)c(OC)c2)NC(C)=O)C(N)=O)cc1OC (stereo not shown) [Cpd 50] | 82.4 | 45.7 | – | – | 77.09 | – | – | 42.79
24 | COc1cc(C(=O)NCCCCC(NC(=O)C(CCCCNC(=O)c2cc(OC)c(OC)c(OC)c2)NC(=O)C(CCCCNC(=O)c2cc(OC)c(OC)c(OC)c2)NC(C)=O)C(N)=O)cc(OC)c1OC (stereo not shown) [Cpd 52] | 170 | 221 | – | – | 174.80 | – | – | 226.70
25 | CC(=O)NC(CCCCNC(=O)c1cc(O)c(O)c(O)c1)C(=O)NC(CCCCNC(=O)c1cc(O)c(O)c(O)c1)C(=O)NC(CCCCNC(=O)c1cc(O)c(O)c(O)c1)C(N)=O (stereo not shown) [Cpd 54] | 7.61 | 3.33 | 4 (≈ 4.44 µM) | 5 | 6.85 | 2 (≈ 2.22 µM) | 3 | 3.00
